# In PubChem BioAssay (NCI):
#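 48-hour exposure; five concentrations; linearly interpolated endpoints. TGI denotes the concentration required for complete inhibition of growth.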
# Assays:
# Assay in all cases: NCI tumour cell line growth inhibition, 48 h
# A498 renal = system: A498 renal
# ACHN renal = system: ACHN renal
# HCC-2998 colon = system: HCC-2998 colon
# HL-60(TB) leukemia = system: HL-60(TB) leukemia
# HOP-62 NSCLC = system: HOP-62 NSCLC
# HOP-92 NSCLC = system: HOP-92 NSCLC
# HT29 colon = system: HT29 colon
# MDA-N = system: MDA-N
# OVCAR-5 ovarian = system: OVCAR-5 ovarian
# OVCAR-8 ovarian = system: OVCAR-8 ovarian
# SF-539 CNS = system: SF-539 CNS
# SK-OV-3 ovarian = system: SK-OV-3 ovarian
# TK-10 renal = system: TK-10 renal
# UO-31 renal = system: UO-31 renal
# CCRF-CEM leukemia = system: CCRF-CEM leukemia
# DU-145 prostate = system: DU-145 prostate
# NCI-H522 lung = system: NCI-H522 lung
# SF-295 CNS = system: SF-295 CNS
# U251 CNS = system: U251 CNS
# SNB-75 CNS = system: SNB-75 CNS
SMILES,TGI (A498 renal),TGI (ACHN renal),TGI (HCC-2998 colon),TGI (HL-60(TB) leukemia),TGI (HOP-62 NSCLC),TGI (HOP-92 NSCLC),TGI (HT29 colon),TGI (MDA-N),TGI (OVCAR-5 ovarian),TGI (OVCAR-8 ovarian),TGI (SF-539 CNS),TGI (SK-OV-3 ovarian),TGI (TK-10 renal),TGI (UO-31 renal),TGI (CCRF-CEM leukemia),TGI (DU-145 prostate),TGI (NCI-H522 lung),TGI (SF-295 CNS),TGI (U251 CNS),TGI (SNB-75 CNS)
O=C(/C=C/c1ccccc1)c1cc(C(=O)/C=C/c2ccccc2)c(O)cc1O,90.7 µM,> 100 µM,> 100 µM,> 100 µM,> 100 µM,> 100 µM,> 100 µM,> 100 µM,> 100 µM,> 100 µM,> 100 µM,> 100 µM,> 100 µM,> 100 µM,–,–,–,–,–,–
COc1ccc(C(OCC2OC3(COC(c4ccccc4)(c4ccc(OC)cc4)c4ccc(OC)cc4)C(Oc4nc(=O)ccn43)C2O)(c2ccccc2)c2ccc(OC)cc2)cc1 (stereo unspecified),–,> 100 µM,–,> 100 µM,> 100 µM,–,> 100 µM,> 100 µM,> 100 µM,> 100 µM,> 100 µM,> 100 µM,> 100 µM,> 100 µM,> 100 µM,> 100 µM,> 100 µM,> 100 µM,> 100 µM,–
CNn1c(-c2ccc(C)cc2)n[nH]c1=O,> 100 µM,> 100 µM,> 100 µM,–,> 100 µM,> 100 µM,> 100 µM,–,> 100 µM,> 100 µM,> 100 µM,> 100 µM,> 100 µM,> 100 µM,> 100 µM,–,> 100 µM,> 100 µM,> 100 µM,–
CC(C)(C)C1=CC(=C2C=Cc3cc(O)ccc3O2)C=C(C(C)(C)C)C1=O,2.85 µM,3.06 µM,2.54 µM,3.15 µM,4.02 µM,3.19 µM,3.59 µM,–,3.94 µM,3.79 µM,3.4 µM,4.09 µM,3.09 µM,2.5 µM,3.45 µM,3.03 µM,2.99 µM,3.45 µM,2.69 µM,3.3 µM
COc1ccc(C2Oc3c(cccc3-c3c(-c4ccc(O)cc4)oc4cc(O)cc(O)c4c3=O)C(=O)C2O)cc1O (stereo unspecified),> 100 µM,> 100 µM,> 100 µM,> 100 µM,> 100 µM,> 100 µM,> 100 µM,–,> 100 µM,> 100 µM,–,> 100 µM,> 100 µM,> 100 µM,> 100 µM,> 100 µM,–,> 100 µM,> 100 µM,> 100 µM
CC(C)(C)n1c(=O)n(-c2ccccc2)n(C(C)(C)C)c1=O,> 100 µM,> 100 µM,> 100 µM,> 100 µM,> 100 µM,> 100 µM,> 100 µM,> 100 µM,> 100 µM,> 100 µM,> 100 µM,> 100 µM,> 100 µM,> 100 µM,> 100 µM,–,–,> 100 µM,> 100 µM,> 100 µM
COc1ccc(C[C@@H](C(=O)O[C@H](C)[C@H](NC(=O)[C@@H](CC(C)C)N(C)C(=O)C2CCCN2C(=O)[C@H](C)O)C(=O)N2CCCCNC(=O)[C@@H](C)C(=O)[C@H](C(C)C)OC(=O)C[C@H](O)[C@H]2CC(C)C)N(C)C(C)=O)cc1 (stereo partly specified),43.6 µM,> 50 µM,23 µM,25.2 µM,> 50 µM,> 50 µM,25.4 µM,–,> 50 µM,> 50 µM,17.1 µM,> 50 µM,> 50 µM,> 50 µM,26.1 µM,> 50 µM,> 50 µM,> 50 µM,21.8 µM,> 50 µM
O=C(O/N=c1/ccc(=O)/c(=N\OC(=O)c2ccccc2)c1=O)c1ccccc1,> 100 µM,> 100 µM,> 100 µM,52.1 µM,> 100 µM,> 100 µM,> 100 µM,> 100 µM,> 100 µM,> 100 µM,> 100 µM,> 100 µM,> 100 µM,> 100 µM,89.7 µM,–,> 100 µM,> 100 µM,> 100 µM,> 100 µM
CNC(=O)CCCNC(=O)CCCCC(=O)N(C)C,> 100 µM,> 100 µM,–,–,> 100 µM,–,> 100 µM,> 100 µM,> 100 µM,> 100 µM,> 100 µM,> 100 µM,> 100 µM,> 100 µM,–,> 100 µM,> 100 µM,> 100 µM,> 100 µM,–
C=CC(=O)Nc1ccccc1CC(c1c[nH]c2ccccc12)c1c[nH]c2ccccc12,–,–,33.4 µM,–,35.1 µM,–,37.5 µM,–,–,33.6 µM,36.6 µM,45.7 µM,59.1 µM,31.7 µM,54.2 µM,–,48.2 µM,49.1 µM,–,28.4 µM
Cc1ccc2c(=O)c(-c3nnc(NC4CCCCC4)s3)c[nH]c2n1,> 100 µM,> 100 µM,–,> 100 µM,> 100 µM,–,> 100 µM,> 100 µM,> 100 µM,> 100 µM,–,–,> 100 µM,> 100 µM,> 100 µM,> 100 µM,> 100 µM,> 100 µM,> 100 µM,–
O=C(Cn1c2c(c3ccccc31)CCCC2)N1CCCCC1,–,> 100 µM,> 100 µM,> 100 µM,> 100 µM,> 100 µM,> 100 µM,> 100 µM,> 100 µM,> 100 µM,> 100 µM,> 100 µM,> 100 µM,> 100 µM,–,–,–,> 100 µM,–,–
CC(Cc1ccccc1)N(C)Cc1nc(C2CCC([N+](=O)[O-])O2)no1 (stereo unspecified),–,–,14.3 µM,–,19.7 µM,51.2 µM,11.5 µM,–,29 µM,59.1 µM,8.38 µM,84 µM,28.4 µM,20.4 µM,44.8 µM,24.9 µM,–,20.9 µM,22.9 µM,23.1 µM
CC(C)(C)[Si](C)(C)OCCc1ccccc1C1CC2(S(=O)(=O)c3ccccc3)ON1CC2S(=O)(=O)c1ccccc1 (stereo unspecified),> 100 µM,> 100 µM,> 100 µM,–,> 100 µM,–,> 100 µM,> 100 µM,> 100 µM,> 100 µM,> 100 µM,> 100 µM,> 100 µM,> 100 µM,> 100 µM,> 100 µM,–,> 100 µM,> 100 µM,> 100 µM
